Patent US8815925B2, “Use of combination preparations comprising antifungal agents” (priority 2006, dated 2014)

Legend:
[1] = test system: diaper thrush (Candida mycosis)
Text: The treatment was by topical administration of suitable pharmaceutical substance combinations on the skin, or on the mucosae of the genitourinary tract and of the oropharynx, respectively.
(§1) Therapy with an ointment combination of Clotrimazole/Diclofenac-Na

[2] = test system: Candida vulvovaginitis
Procedure: The treatment was by topical administration of suitable pharmaceutical substance combinations on the skin, or on the mucosae of the genitourinary tract and of the oropharynx, respectively. […]
as §1
Single dose: 5 mg of Diclofenac-Na/20 mg of Clotrimazole
Dosage regimen: initially (3 days) 3×/day ointment strips of 2.5 cm locally applied in vulva and vagina, subsequently once per day, for 4 days.
patient, suffering from chronic-recurrent Candida vulvovaginitis for years (>10 recurrences/year), otherwise healthy, prior treatment both topical (Clotrimazole, Miconazole) and systemically (Fluconazole, several times, also long-term therapy and therapy of the partner).
Initial therapy: Clotrimazole/Diclofenac (25/25 mg) supp. for 2 days, subsequently
Clotrimazole/Diclofenac as ointment as described in Case 1, for 3 days. […]

[3] = test system: chronic-recurrent vulvovaginitis; settings: Fluconazol 150 mg orally, long-term regimen; cited from earlier work

| SMILES | clinical picture under monotherapy (summary) ([1]; first diaper thrush case) | healing under monotherapy (summary) ([1]; second (mild) diaper thrush case) | response to local treatment (monotherapy) ([2]; Case 1, during pregnancy, before the combination therapy) | response to monotherapy ([2]; Case 2, 8 days of therapy, before the combination therapy) | improvement by conventional local therapy (summary) ([2]; first and third cases) | course of curing under monotherapy (summary) ([2]; second case, 8 days of intensive therapy) | cases that become recurrent after discontinuation [3] |
| --- | --- | --- | --- | --- | --- | --- | --- |
| Clc1ccccc1C(c1ccccc1)(c1ccccc1)n1ccnc1 [Clotrimazole] | marked deterioration | healing after three days | complete therapy resistance | low-grade improvement | no improvement | highly retarded | – |
| OC(Cn1cncn1)(Cn1cncn1)c1ccc(F)cc1F [Fluconazol] | – | – | – | – | – | – | about 50% |
